# Experiments:
# HMG-CoA reductase = target: T1, HMG-CoA reductase (Sus scrofa, UniProt Q1W675); experiment: Hepatic HMG-CoA reductase activity in hypercholesterolemic swine; type: in vivo; details: control diet + 50 ppm
# T1 construct: The hepatic enzymatic activity of the HMG-CoA reductase decreased approximately 30%; from tissue; host or cells: pig liver, microsomes
# T1 sequence (Q1W675 1-885): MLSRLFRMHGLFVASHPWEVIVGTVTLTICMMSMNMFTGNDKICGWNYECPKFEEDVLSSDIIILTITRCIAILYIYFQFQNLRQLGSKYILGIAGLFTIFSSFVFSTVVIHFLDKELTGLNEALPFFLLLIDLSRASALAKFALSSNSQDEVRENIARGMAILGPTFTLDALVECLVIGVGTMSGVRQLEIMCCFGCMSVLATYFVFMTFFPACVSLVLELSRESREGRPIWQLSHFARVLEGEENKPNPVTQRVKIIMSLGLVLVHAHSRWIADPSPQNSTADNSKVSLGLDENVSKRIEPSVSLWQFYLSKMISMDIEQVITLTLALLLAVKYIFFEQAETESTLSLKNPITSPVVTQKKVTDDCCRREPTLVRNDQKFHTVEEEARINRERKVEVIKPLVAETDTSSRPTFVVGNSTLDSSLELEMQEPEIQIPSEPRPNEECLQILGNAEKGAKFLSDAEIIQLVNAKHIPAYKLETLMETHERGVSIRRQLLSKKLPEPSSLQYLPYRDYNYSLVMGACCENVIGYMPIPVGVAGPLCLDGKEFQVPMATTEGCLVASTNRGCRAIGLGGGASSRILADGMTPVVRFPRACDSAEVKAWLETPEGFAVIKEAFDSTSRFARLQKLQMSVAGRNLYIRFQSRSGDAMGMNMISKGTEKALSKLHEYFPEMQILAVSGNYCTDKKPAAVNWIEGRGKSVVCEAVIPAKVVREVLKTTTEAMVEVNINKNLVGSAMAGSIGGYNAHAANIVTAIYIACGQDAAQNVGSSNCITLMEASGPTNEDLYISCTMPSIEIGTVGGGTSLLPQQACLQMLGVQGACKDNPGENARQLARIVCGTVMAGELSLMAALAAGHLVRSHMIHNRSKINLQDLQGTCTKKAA
# Excerpt: (§1) All assays conducted on chicken or swine serum were done following the protocols described in A. A. Qureshi et al., "Lowering Of Serum Cholesterol In Hypercholesterolemic Humans By Tocotrienols" (Palmvitee), Am. J. Clin. Nutr., 53, pp. 1021S-26S (1991). All enzymatic assays were done following the protocols described in A. A. Qureshi et al., "Effects of Cereals and Culture Filtrate of Trichoderma viride on Lipid Metabolism of Swine", Lipids, 17, pp. 924 (1982). Plasma insulin, glucagon and TNF levels were measured using radioinnumoassay kits from Ventrex Laboratories, Inc. (Portland, Me.), ICN Biomedicals, Inc. (Costa Mesa, Calif.) and Genzyme Corp. (Cambridge, Mass.), respectively.
# We next measured the effects of various tocotrienols from rice bran on HMG-CoA reductase and cholesterol 7α-hydroxylase in hypercholesterolemic swine. Since pigs are very similar to humans in their cholesterol metabolism, they provide a useful model from which to study hypercholesterolemia and related diseases. […] The serum cholesterol concentration in these swine is typically above 300-500 mg/dl, as compared to 120-160 mg/dl in normal adult swine. As a result, the pigs develop complicated atherosclerotic plaques that closely resemble advanced atherosclerotic lesions found in humans.
# (§2) Each group of three 5-month old swine was administered either a control diet or a control diet supplemented with 50 ppm of TRF or 50 ppm of an individual tocotrienol. The samples were prepared as described in Example 11. After a 12 hour fast, serum and plasma samples were taken a 0 hrs, 21 days and 42 days from the start of the feeding period. After taking serum and plasma samples from the pigs at the end of the 42 day period, all of the swine were fasted for a total of 40 hours, followed by a 48 hour refeeding period. One swine from each group was sacrificed at that time and the liver, intestine, lung, heart, loin muscle, adipose tissue and ham muscle were removed.
# [1] = tested on: hypercholesterolemic swine; experiment: Plasma thromboxane B2 and platelet factor 4 in hypercholesterolemic swine; type: in vivo; details: control diet + 50 ppm, 42 days
# Excerpt: as §1, §2
# This example was conducted to measure the serum levels of apolipoprotein (a)1, apolipoprotein B, triglycerides, glucose, insulin and glucagon and the plasma levels of thromboxane B2 and platelet factor 4 in the swine described in Example 15.
# [2] = tested on: hypercholesterolemic swine; experiment: Total cholesterol, triglyceride and glucose concentrations in tissues of hypercholesterolemic swine; type: in vivo; details: control diet + 50 ppm, 42 days
# Description: as §2, with “The samples were prepared as described in Example 11.” left out
# We next determined the effect of tocotrienols on the total cholesterol, triglyceride and glucose concentrations in various tissues of hypercholesterolemic swine.
# chickens = experiment: Antibody titers to sheep red blood cells in chickens; type: in vivo, chicken; details: control diet + 50 ppm, 4 weeks, sheep red blood cells i.p.
# Description: The model for this study was 6-week old female white leghorn chickens. Each group of 12 chickens was fed an unsupplemented chicken diet or a control diet supplemented with 50 ppm of a tocotrienol or 100 ppm of a commercially available hypercholesterolemic agent (Geraniol or Lovastatin). […] The chickens were fed over a period of 4 weeks, then the blood was drawn. The antibody response was determined by injecting the chickens i.p. with 0.5 ml of a 5% suspension of sheep red blood cells (RBCs) in PBS (v/v) which were previously washed three times. […] Relative IgG levels were determined by using 2-mercaptoethanol preincubation for 30 min. The relative IgM levels were calculated by subtracting the IgG antibody levels from total antibody levels. All antibody levels are expressed as the log base 2 of the highest titer that was needed to hemagglutinate an equal volume of 0.5% RBC suspension.
smiles,measurement,setting,value
"CC(C)=CCC/C(C)=C/CC/C(C)=C/CCC1(C)CCc2cc(O)c(C)c(C)c2O1 (centres unmarked) [γ-T3, γ-tocotrienol, reference compound]",HMG-CoA REDUCTASE,HMG-CoA reductase; 21 days,300.72 pg/min/mg of microsomes
same,"HMG-CoA REDUCTASE, percentage of 0-time value",HMG-CoA reductase; 21 days,86.19%
same,HMG-CoA REDUCTASE,HMG-CoA reductase; 42 days,280.88 pg/min/mg of microsomes
same,"HMG-CoA REDUCTASE, Percentage of Control Activity",HMG-CoA reductase; 42 days,73.31%
same,"HMG-CoA REDUCTASE, percentage of 0-time value",HMG-CoA reductase; 42 days,80.71%
same,"Platelet Factor 4, percentage of control",[1],85.28%
same,Thromboxane B2,[1],62.54 pg/100 ml
same,"Thromboxane B2, percentage of control",[1],92.25%
same,"TOTAL CHOLESTEROL CONCENTRATION, Adipose Tissue",[2],94.55 mg/100 gm
same,"TOTAL CHOLESTEROL CONCENTRATION, Ham Muscle",[2],85.15 mg/100 gm
same,"TOTAL CHOLESTEROL CONCENTRATION, Heart",[2],56.68 mg/100 gm
same,"TOTAL CHOLESTEROL CONCENTRATION, Intestine",[2],187.06 mg/100 gm
same,"TOTAL CHOLESTEROL CONCENTRATION, Liver",[2],149.20 mg/100 gm
same,"TOTAL CHOLESTEROL CONCENTRATION, Loin Muscle",[2],103.48 mg/100 gm
same,"TOTAL CHOLESTEROL CONCENTRATION, Lung",[2],83.79 mg/100 gm
same,"TOTAL CHOLESTEROL, Adipose Tissue, percentage of control",[2],86.43%
same,"TOTAL CHOLESTEROL, Ham Muscle, percentage of control",[2],85.15%
same,"TOTAL CHOLESTEROL, Heart, percentage of control",[2],87.86%
same,"TOTAL CHOLESTEROL, Intestine, percentage of control",[2],86.81%
same,"TOTAL CHOLESTEROL, Liver, percentage of control",[2],74.01%
same,"TOTAL CHOLESTEROL, Loin Muscle, percentage of control",[2],86.51%
same,"TOTAL CHOLESTEROL, Lung, percentage of control",[2],82.36%
same,"TOTAL GLUCOSE CONCENTRATION, Adipose Tissue",[2],15.93 mg/100 gm
same,"TOTAL GLUCOSE CONCENTRATION, Ham Muscle",[2],52.10 mg/100 gm
same,"TOTAL GLUCOSE CONCENTRATION, Heart",[2],46.81 mg/100 gm
same,"TOTAL GLUCOSE CONCENTRATION, Intestine",[2],62.50 mg/100 gm
same,"TOTAL GLUCOSE CONCENTRATION, Liver",[2],383.68 mg/100 gm
same,"TOTAL GLUCOSE CONCENTRATION, Loin Muscle",[2],60.30 mg/100 gm
same,"TOTAL GLUCOSE CONCENTRATION, Lung",[2],63.08 mg/100 gm
same,"TOTAL GLUCOSE, Adipose Tissue, percentage of control",[2],86.86%
same,"TOTAL GLUCOSE, Ham Muscle, percentage of control",[2],96.80%
same,"TOTAL GLUCOSE, Heart, percentage of control",[2],95.05%
same,"TOTAL GLUCOSE, Intestine, percentage of control",[2],86.84%
same,"TOTAL GLUCOSE, Liver, percentage of control",[2],94.53%
same,"TOTAL GLUCOSE, Loin Muscle, percentage of control",[2],84.64%
same,"TOTAL GLUCOSE, Lung, percentage of control",[2],94.25%
same,"TOTAL TRIGLYCERIDES CONCENTRATION, Adipose Tissue",[2],391.58 mg/100 gm
same,"TOTAL TRIGLYCERIDES CONCENTRATION, Ham Muscle",[2],181.99 mg/100 gm
same,"TOTAL TRIGLYCERIDES CONCENTRATION, Heart",[2],142.72 mg/100 gm
same,"TOTAL TRIGLYCERIDES CONCENTRATION, Intestine",[2],351.33 mg/100 gm
same,"TOTAL TRIGLYCERIDES CONCENTRATION, Liver",[2],397.51 mg/100 gm
same,"TOTAL TRIGLYCERIDES CONCENTRATION, Loin Muscle",[2],201.65 mg/100 gm
same,"TOTAL TRIGLYCERIDES CONCENTRATION, Lung",[2],167.18 mg/100 gm
same,"TOTAL TRIGLYCERIDES, Adipose Tissue, percentage of control activity",[2],89.88%
same,"TOTAL TRIGLYCERIDES, Ham Muscle, percentage of control activity",[2],97.93%
same,"TOTAL TRIGLYCERIDES, Heart, percentage of control activity",[2],98.96%
same,"TOTAL TRIGLYCERIDES, Intestine, percentage of control activity",[2],98.24%
same,"TOTAL TRIGLYCERIDES, Liver, percentage of control activity",[2],92.58%
same,"TOTAL TRIGLYCERIDES, Loin Muscle, percentage of control activity",[2],91.79%
same,"TOTAL TRIGLYCERIDES, Lung, percentage of control activity",[2],97.22%
same,IgG antibody titers in serum,chickens,1.28 Log 2
same,IgM antibody titers in serum,chickens,5.83 ± 1.53 Log 2
same,Total Ab titers in serum,chickens,6.60 ± 1.51 Log 2

# Reference: US6239171A, “Tocotrienols and tocotrienol-like compounds and methods for their use” (Lipogenics, Inc., priority 1998, dated 2001)
